Laboratory results reported in patent publication US20240316047A1, “INHIBITORS OF RNA HELICASE DHX9 AND USES THEREOF” (ACCENT THERAPEUTICS, INC., priority 2022, published 2024).
pIC50: −log10 of the molar value.

Biological target: Human recombinant DHX9 protein (Homo sapiens (Human), UniProt Q08211)
Assay: DHX9 ATPase assay (ADP-Glo)
Format: biochemical
Conditions: for pIC50: read-out: DHX9 Biochemical Inflection Point

Human recombinant DHX9 protein, sequence (Q08211 whole entry): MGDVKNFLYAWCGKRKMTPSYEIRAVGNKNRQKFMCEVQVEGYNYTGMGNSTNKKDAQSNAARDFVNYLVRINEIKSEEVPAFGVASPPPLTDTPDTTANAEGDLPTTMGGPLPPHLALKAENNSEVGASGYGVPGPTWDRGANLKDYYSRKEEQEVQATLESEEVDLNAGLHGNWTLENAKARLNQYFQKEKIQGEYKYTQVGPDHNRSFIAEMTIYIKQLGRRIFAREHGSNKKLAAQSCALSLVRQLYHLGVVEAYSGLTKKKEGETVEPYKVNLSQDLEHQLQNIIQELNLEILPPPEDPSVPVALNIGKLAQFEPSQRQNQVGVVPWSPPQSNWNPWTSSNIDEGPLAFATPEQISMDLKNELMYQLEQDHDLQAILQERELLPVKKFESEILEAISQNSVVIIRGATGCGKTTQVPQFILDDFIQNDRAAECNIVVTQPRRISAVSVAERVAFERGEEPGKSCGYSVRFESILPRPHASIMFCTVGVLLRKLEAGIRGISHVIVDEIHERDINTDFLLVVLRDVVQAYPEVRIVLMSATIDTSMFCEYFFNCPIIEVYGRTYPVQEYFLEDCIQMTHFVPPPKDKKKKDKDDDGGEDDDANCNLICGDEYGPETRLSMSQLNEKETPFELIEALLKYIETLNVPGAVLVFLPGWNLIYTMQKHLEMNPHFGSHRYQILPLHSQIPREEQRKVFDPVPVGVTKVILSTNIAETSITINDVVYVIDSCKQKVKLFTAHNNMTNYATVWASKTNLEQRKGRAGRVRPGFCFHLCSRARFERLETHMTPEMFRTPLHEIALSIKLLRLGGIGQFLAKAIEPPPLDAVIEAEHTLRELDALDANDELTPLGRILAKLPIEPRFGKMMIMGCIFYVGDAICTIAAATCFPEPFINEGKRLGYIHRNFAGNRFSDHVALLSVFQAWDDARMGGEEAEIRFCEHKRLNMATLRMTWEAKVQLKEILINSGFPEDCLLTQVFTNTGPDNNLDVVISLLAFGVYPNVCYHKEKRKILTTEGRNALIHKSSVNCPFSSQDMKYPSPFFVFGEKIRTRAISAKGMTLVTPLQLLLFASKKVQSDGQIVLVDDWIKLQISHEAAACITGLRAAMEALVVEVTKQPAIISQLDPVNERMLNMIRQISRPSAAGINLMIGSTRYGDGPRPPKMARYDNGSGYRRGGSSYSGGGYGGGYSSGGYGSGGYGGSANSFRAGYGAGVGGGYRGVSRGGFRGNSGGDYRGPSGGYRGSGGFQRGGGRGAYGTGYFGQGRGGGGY

SMILES	DHX9 Biochemical Max Inhibition	pIC50
COc1cnc(-c2cc(C(=O)Nc3cc(Cl)cc(NS(C)(=O)=O)c3)sc2C)c(Cl)c1 [Example 364]	79.8%	7.81
CC(C)(C)OC(=O)N1CCC(n2cc(C(=O)Nc3cc(Cl)cc(NS(C)(=O)=O)c3)cn2)CC1 [Example 136]	59.6%	
Cn1cc(C(=O)Nc2cc(Cl)cc(NS(C)(=O)=O)c2)cc1-c1ncc(N2CC[Si](C)(C)CC2)cc1F [Example 470]	93.8	6.90
COc1cnc(-n2cc(C(=O)Nc3cc(Cl)cc(NS(C)(=O)=O)c3)cc2C)nc1 [Example 441]	72.6	7.58
Cc1cc(F)cc(C#N)c1-c1cc(C(=O)Nc2cc(Cl)cc(NS(C)(=O)=O)c2)cn1C [Example 659]	50.7	7.16
Cc1sc(C(=O)Nc2cc(Cl)cc(NS(C)(=O)=O)c2)cc1-c1ncc(OC(C)(C)C)cc1F [Example 381]	67.4%	
Cc1cc(C(=O)Nc2cc(Cl)cc(NS(C)(=O)=O)c2)cn1-c1ncc(N2CCOCC2)cc1F [Example 320]	72.2%	7.98
Cc1cc(C(=O)Nc2cc(Cl)cc(NS(C)(=O)=O)c2)cn1-c1ncc(N2CC(F)(F)C2)cc1OCC(F)(F)F [Example 708]	73	7.16
Cc1cc(C(=O)Nc2cc(Cl)cc(NS(C)(=O)=O)c2)cn1-c1ccc(N(C)C2CCOC2)cn1 (centres unmarked) [Example 269]	76.9%	8.36
CSc1cnc(-n2cc(C(=O)Nc3cc(Cl)cc(NS(C)(=O)=O)c3)cc2C)nc1 [Example 658]	73.1	7.27
COC1CCN(c2cc(F)cnc2-c2cc(C(=O)Nc3cc(Cl)cc(NS(C)(=O)=O)c3)sc2C)C1 (centres unmarked) [Example 505]	54.3	7.33
CS(=O)(=O)Nc1cc(Cl)cc(NC(=O)c2cc3c(=O)[nH]ccn3c2)c1 [Example 301]	69.5%	7.42
CS(=O)(=O)Nc1cc(Cl)cc(NC(=O)c2cnn(CCCO)c2)c1 [Example 126, N-(3-chloro-5-(methylsulfonamido)phenyl)-1-(3-hydroxypropyl)-1H-pyrazole-4-carboxamide]	64.5%	6.74
Cc1cc(C(=O)Nc2cc(Cl)cc(NS(C)(=O)=O)c2)cn1-c1ncc(N2CC(F)(F)C2)cc1Cl [Example 406]	75.7	7.26
Cn1cc(C(=O)Nc2cc(Cl)cc(NS(C)(=O)=O)c2)cc1-c1ccc(N2CCN(C(=O)C3CC3)CC2)cn1 [Example 594]	80.1	7.96
Cc1ccc2cc(C(=O)Nc3cc(Cl)cc(NS(C)(=O)=O)c3)cn2c1 [Example 300]	58.5%	6.88
CS(=O)(=O)Nc1cc(Cl)cc(NC(=O)c2cc3ccncc3s2)c1 [Example 230]	65.9%	7.03
CCOc1cc(F)cnc1-c1cc(C(=O)Nc2cc(Cl)cc(NS(C)(=O)=O)c2)cn1C [Example 561]	69.7	7.80
Cn1cc(C(=O)Nc2cc(Cl)cc(NS(C)(=O)=O)c2)cc1-c1ncc(F)cn1 [Example 171, N-(3-chloro-5-(methylsulfonamido)phenyl)-5-(5-fluoropyrimidin-2-yl)-1-methyl-1H-pyrrole-3-carboxamide]	61.8%	7.84
CC(=O)N1CCN(c2cnc(-n3cc(C(=O)Nc4cc(Br)cc(NS(C)(=O)=O)c4)cn3)c(C)c2)CC1 [Example 87]	55.7%	7.58
Cc1sc(C(=O)Nc2cc(Cl)cc(NS(C)(=O)=O)c2)cc1-c1ncc(N2CCC3(CC2)COC3)cc1F [Example 474]	70.4	7.93
CS(=O)(=O)Nc1cc(Cl)cc(NC(=O)c2cc(-c3ncccn3)cs2)c1 [Example 26]	65.6%	8.74
Cc1sc(C(=O)Nc2cc(Cl)cc(NS(C)(=O)=O)c2)cc1-c1ncc(C#N)cn1 [Example 585]	70.9	7.64
CS(=O)(=O)Nc1cc(Cl)cc(NC(=O)c2cc(N3CCOCC3)cs2)c1 [Example 245]	71.4%	6.92

SMILES	DHX9 Biochemical Max Inhibition	pIC50
Cn1cc(C(=O)Nc2cc(Cl)cc(NS(C)(=O)=O)c2)cc1-c1ncc(N2CCN(C(=O)C3CC3)CC2)cc1F [Example 714]	68.7	8.28
Cc1cc(C(=O)Nc2cc(F)cc(NS(C)(=O)=O)c2)n[nH]1 [Example 3]	76.4%	6.19
CCS(=O)(=O)Nc1cc(Cl)cc(NC(=O)c2cc(-c3ccc(F)cn3)c(C)s2)c1 [Example 346]	73%	7.59
CS(=O)(=O)Nc1cc(Br)cc(NC(=O)C2CCC2c2ccccc2)c1 (centres unmarked) [Example 12]	58.6%	4.07
CS(=O)(=O)Nc1cc(Cl)cc(NC(=O)c2cc3c(C(F)(F)F)cccc3s2)c1 [Example 323]	58.2%	6.55
Cc1sc(C(=O)Nc2cc(Cl)cc(NS(C)(=O)=O)c2)cc1-c1ncc(N2CC(F)(F)C2)cc1OC(C)C [Example 534]	78.3	7.70
CS(=O)(=O)Nc1cc(Cl)cc(NC(=O)c2cc3cccnn3c2)c1 [Example 292]	68.5%	7.12
Cc1sc(C(=O)Nc2cc(Cl)cc(NS(C)(=O)=O)c2)cc1-c1ccc(N2CCN(C(=O)C3CC3)CC2)cn1 [Example 590, N-(3-chloro-5-methanesulfonamidophenyl)-4-[5-(4-cyclopropanecarbonylpiperazin-1-yl)pyridin-2-yl]-5-methylthiophene-2-carboxamide]	74.8	8.23
Cn1cc(C(=O)Nc2cc(Cl)cc(NS(C)(=O)=O)c2)cc1-c1ncc(OC2CN(CC(F)(F)F)C2)cc1F [Example 615]	73.9	7.28
CS(=O)(=O)Nc1cc(F)cc(NC(=O)c2cc(-c3cccnc3)cs2)c1 [Example 105, N-(3-fluoro-5-(methylsulfonamido)phenyl)-4-(pyridin-3-yl)thiophene-2-carboxamide]	71.7%	7.10
CN(C)C(=O)Cc1cccnc1-c1csc(C(=O)Nc2cc(Cl)cc(NS(C)(=O)=O)c2)c1 [Example 221]	78.3%	8.18
CS(=O)(=O)Nc1cc(Cl)cc(NC(=O)c2cc(-c3ncccc3OCc3cnco3)cs2)c1 [Example 215]	75.4%	8.40
CCS(=O)(=O)Nc1cc(Cl)cc(NC(=O)c2cc(-c3ncc(F)cc3OCc3nccs3)c(C)s2)c1 [Example 622]	62.9	7.64
Cn1cc(C(=O)Nc2cc(Cl)cc(NS(C)(=O)=O)c2)cc1-c1ccc(N2CCN(C(=O)C(C)(C)C)CC2)cn1 [Example 591]	65.9	7.74
CS(=O)(=O)Nc1cc(Br)cc(NC(=O)c2cnn(-c3ccccc3C(O)C(F)(F)F)c2)c1 (centres unmarked) [Example 103, N-(3-bromo-5-(methylsulfonamido)phenyl)-1-(2-(2,2,2-trifluoro-1-hydroxyethyl)phenyl)-1H-pyrazole-4-carboxamide]	49.5%	6.34
CS(=O)(=O)Nc1cc(Cl)cc(NC(=O)c2cnn(-c3c(F)cccc3OCc3cccc(F)c3)c2)c1 [Example 211]	65.4%	7.20
CS(=O)(=O)Nc1cc(Cl)cc(NC(=O)c2cc(-c3ccc(N4CCOCC4)cn3)n(CC(F)(F)F)c2)c1 [Example 275]	75.1%	7.12
COC(=O)N1CCN(c2cnc(-c3cc(C(=O)Nc4cc(Cl)cc(NS(C)(=O)=O)c4)sc3C)c(C)c2)CC1 [Example 601]	72.2	7.67
Cn1cc(C(=O)Nc2cc(Cl)cc(NS(C)(=O)=O)c2)cc1-c1ncc(F)cc1OCc1cnco1 [Example 268]	73.1%	8.03
CS(=O)(=O)Nc1cc(Br)cc(NC(=O)c2cc(-c3cccnc3)cs2)c1 [Example 78]	56.2%	7.50
CS(=O)(=O)Nc1cc(Cl)cc(NC(=O)c2cnn(-c3ncccc3OCc3cncnc3)c2)c1 [Example 188]	66.2%	7.73
Cn1cc(C(=O)Nc2cc(Cl)cc(NS(C)(=O)=O)c2)cc1-c1ccc(Cl)cn1 [Example 576]	68.1	7.55
CS(=O)(=O)Nc1cc(Cl)cc(NC(=O)c2cc(CN)n(-c3ccccn3)c2)c1 [Example 181]	57.4%	8.02
